Columns and labels:
Cdk10 [1] = system: Cdk10; set-up: method as in PMID 29251720; conditions: MOLT4 lysates; cited from earlier work
Cdk10/CycQ [2] = target: T1, Cdk10/CycQ (Homo sapiens, UniProt Q15131); assay: Radiometric kinase assay, inhibition of Cdk10/CycQ (c-MYC substrate); format: biochemical; conditions: 200 nM kinase, 1 mM ATP, 5 mM Mg2+, 50 µM c-MYC (17-167) as substrate
T1 construct: We expressed the human full-length Cdk10/CycQ complex in Sf9 insect cells; MBP (followed by TEV site) (N, cleaved yes); made in house; host or cells: Sf9 insect cells (baculovirus); c-MYC substrate from E. coli BL21 pLysS

Cdk9 = target: T2, Cdk9 (Homo sapiens, UniProt P50750); assay: Radiometric kinase assay, inhibition of Cdk9 (c-MYC substrate); format: biochemical; conditions: 200 nM kinase, 1 mM ATP, 5 mM Mg2+, 50 µM c-MYC (17-167) as substrate
T2 construct: His; made in house; host or cells: Cdk9 in Sf9 insect cells; CycT1 (1-272) in E. coli

Cdk10/CycQ [3] = target: T1, Cdk10/CycQ; assay: Radiometric kinase assay, inhibition of Cdk10/CycQ (c-MYC substrate); format: biochemical; conditions: for Times more potent towards Cdk9 than Cdk10: ratio of IC50 values Cdk10 vs Cdk9; for Cross reactivity with Cdk10 (effect of inhibitor on Cdk10): at conditions that result in full inhibition of their primary target, supplementary figure S3
Method: Figure 3. […] (a) Chemical structures of the inhibitors tested against Cdk10/CycQ.
Kinase assays with recombinant proteins were performed in kinase assay buffer (50 mM Hepes pH7.6, 34 mM KCl, 7 mM MgCl2, 5 mM β-Glycerophosphate, 2.5 mM DTE). If not indicated otherwise, reactions contained 0.2 µM kinase, were started by the addition of ATP to 1 mM final concentration and incubated at 30°C in a shaking incubator.
For quantitative analysis, radioactive kinase assays were performed. Reactions were done in a total volume of 15 µl per sample. If not indicated otherwise, reactions contained 0.2 µM kinase, were started by addition of ATP to 1 mM containing 0.34 µCi γ[^32P] (Perkin Elmer) and incubated at 30°C in a shaking incubator. Reactions were stopped by adding EDTA to a final concentration of 50 mM. Samples were spotted onto Amersham Protran nitrocellulose membrane (GE Healthcare) filter sheets. Filters were washed three times for 5 min with PBS to remove free, non-reacted ATP. Samples were transferred to 4 ml liquid scintillation vials and immersed in 2 ml liquid scintillator (UltimaGold). Radioactivity was counted in a Beckman Liquid Scintillation Counter (Beckman-Coulter) for 1 min.
All compounds were solved at a stock concentration of 10 mM in DMSO and further pre-diluted in DMSO for dose–response measurement. For IC50 determination radioactive kinase assays were run as described above in presence of increasing concentration of inhibitor. For analysis, the data were normalized to the DMSO solvent control and the activity plotted against the inhibitor concentration. IC50 values were determined from duplicate measurements by sigmoidal curve fitting with a variable slope using GraphPadPrism, v.

Cdk10 [4] = system: Cdk10; set-up: method as in PMID 29251720; conditions: cited from earlier work

T1 sequence (Q15131 whole entry): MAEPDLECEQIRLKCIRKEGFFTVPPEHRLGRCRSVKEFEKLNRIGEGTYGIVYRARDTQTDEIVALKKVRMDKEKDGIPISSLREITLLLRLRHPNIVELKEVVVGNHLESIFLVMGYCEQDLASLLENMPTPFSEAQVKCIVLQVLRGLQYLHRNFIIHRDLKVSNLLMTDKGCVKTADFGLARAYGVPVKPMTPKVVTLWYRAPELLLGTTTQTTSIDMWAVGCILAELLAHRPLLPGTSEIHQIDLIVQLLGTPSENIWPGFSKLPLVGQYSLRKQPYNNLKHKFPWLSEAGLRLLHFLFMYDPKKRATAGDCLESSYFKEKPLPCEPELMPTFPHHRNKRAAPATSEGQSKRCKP
T1 sequence (Q8N1B3 whole entry partner): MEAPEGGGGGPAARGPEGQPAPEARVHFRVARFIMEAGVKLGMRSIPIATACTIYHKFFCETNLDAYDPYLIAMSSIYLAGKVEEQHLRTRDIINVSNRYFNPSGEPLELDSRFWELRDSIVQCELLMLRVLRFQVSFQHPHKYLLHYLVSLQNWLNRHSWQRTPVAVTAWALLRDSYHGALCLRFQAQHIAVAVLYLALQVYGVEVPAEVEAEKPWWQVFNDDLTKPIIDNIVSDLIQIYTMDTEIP
T2 sequence (P50750 whole entry, species assumed): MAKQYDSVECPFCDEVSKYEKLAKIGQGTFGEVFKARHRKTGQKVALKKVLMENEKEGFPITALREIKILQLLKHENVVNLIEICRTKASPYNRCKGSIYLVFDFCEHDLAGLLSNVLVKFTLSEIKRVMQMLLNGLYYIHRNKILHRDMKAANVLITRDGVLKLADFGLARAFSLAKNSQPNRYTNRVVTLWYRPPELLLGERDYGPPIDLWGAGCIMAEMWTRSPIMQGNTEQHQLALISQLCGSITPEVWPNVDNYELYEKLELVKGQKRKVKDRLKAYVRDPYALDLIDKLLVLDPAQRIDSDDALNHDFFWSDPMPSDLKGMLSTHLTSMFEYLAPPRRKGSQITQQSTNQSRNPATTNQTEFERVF
T2 sequence (O60563 1-272 partner limits assumed, species assumed): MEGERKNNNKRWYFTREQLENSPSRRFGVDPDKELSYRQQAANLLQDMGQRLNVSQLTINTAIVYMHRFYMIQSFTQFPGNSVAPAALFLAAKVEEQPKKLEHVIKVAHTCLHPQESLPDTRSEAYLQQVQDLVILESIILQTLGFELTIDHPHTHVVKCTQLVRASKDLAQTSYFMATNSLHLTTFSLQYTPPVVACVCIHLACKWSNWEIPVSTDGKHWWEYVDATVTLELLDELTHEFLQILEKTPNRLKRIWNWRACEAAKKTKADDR

SMILES | Times more potent towards Cdk9 than Cdk10 (Cdk10/CycQ [3]) | Cross reactivity with Cdk10 (effect of inhibitor on Cdk10) (Cdk10/CycQ [3]) | other results
COCC(C)NC1CCC(Nc2cc(-c3cccc(NCC4(C#N)CCOCC4)n3)c(Cl)cn2)CC1 (centres unmarked) [NVP-2] | at least 5 times | – | Binding to Cdk10 (Cdk10 [1]): identified binding to Cdk10; IC50 (Cdk10/CycQ [2]): 1040 nM; IC50 (Cdk9): 58 nM
Cc1cc(O)c(-c2ccc([C@@H](C)CN(C)C)cc2)c2c1[nH]c(=O)c1sccc12 [OTS964] | – | – | IC50 (Cdk10/CycQ [2]): 5370 nM; IC50 (Cdk9): 138000 nM
CC(C)(C)c1cnc(CSc2cnc(NC(=O)C3CCNCC3)s2)o1 [SNS-032] | at least 5 times | – | Binding to Cdk10 (Cdk10 [1]): identified binding to Cdk10
CC(C)(C)c1cnc(CSc2cnc(NC(=O)C3CCN(CC(=O)NCCOCCOCCOCCNc4cccc5c4C(=O)N(C4CCC(=O)NC4=O)C5=O)CC3)s2)o1 (centres unmarked) [THAL-SNS-032] | – | – | Degradation of Cdk10 (Cdk10 [4]): degrades Cdk10 only after a longer incubation period
CN(C)C/C=C/C(=O)Nc1ccc(C(=O)Nc2cccc(Nc3ncc(Cl)c(-c4c[nH]c5ccccc45)n3)c2)cc1 [THZ-1] | – | did not observe any considerable effect | –
CN(C)C/C=C/C(=O)Nc1ccc(C(=O)N2CCC[C@@H](Nc3ncc(Cl)c(-c4c[nH]c5ccccc45)n3)C2)cc1 [THZ-531] | – | did not observe any considerable effect | –
C=CC(=O)Nc1ccc(C(=O)Nc2[nH]nc3c2CN(C(=O)N[C@H](CN(C)C)c2ccccc2)C3(C)C)cc1 [YKL-5-124] | – | did not observe any considerable effect | –
CCN1CCN(Cc2ccc(Nc3ncc(F)c(-c4cc(F)c5nc(C)n(C(C)C)c5c4)n3)nc2)CC1 [abemaciclib] | – | did not observe any considerable effect | –
CCc1cnn2c(NCc3ccc[n+]([O-])c3)cc(N3CCCC[C@H]3CCO)nc12 [dinaciclib] | at least 5 times | – | IC50 (Cdk10/CycQ [2]): 298 nM
CN1CC[C@H](c2c(O)cc(O)c3c(=O)cc(-c4ccccc4Cl)oc23)[C@H](O)C1 [flavopiridol] | at least 5 times | – | –
CC(=O)c1c(C)c2cnc(Nc3ccc(N4CCNCC4)cn3)nc2n(C2CCCC2)c1=O [palbociclib] | – | did not observe any considerable effect | –

— publication PMC8924752, “Functional characterization of the human Cdk10/Cyclin Q complex” (Open Biology, 2022)
